Experimental data from patent publication US11912693B2, “Compounds for modulating S1P1 activity and methods of using the same” (TREVENA, INC., priority 2017, dated 2024).

How the values were obtained:
[1] = target: T1, human sphingosine-1-phosphate receptor 1 (S1P1) (Homo sapiens (Human), UniProt P21453); assay: β-Arrestin2 recruitment assay (PathHunter), S1P1 CHO-K1 cells; type: cell-based; conditions: for Emax: CHO-K1, efficacy (SPAN) normalized to fingolimod, read-out: hS1P1 B-arrestin2 SPAN; for hS1P1 B-arrestin2 pEC50 / EC50: β-arrestin2 recruitment, S1P1 CHO-K1 cells; for EC50: read-out: hS1P1 B-arrestin2 pEC50 (converted)
Summary of the method: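 Enzyme-fragment complementation read-out: agonist-driven β-arrestin2 binding to ProLink-tagged human S1P1 in stable CHO-K1 cells restores β-galactosidase, measured 1 h at room temperature after a 60 min 37° C. compound incubation. Potency as pEC50, efficacy relative to fingolimod (SPAN).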
Target sequence in this assay (P21453 whole entry, looked up, the tested form may be a part): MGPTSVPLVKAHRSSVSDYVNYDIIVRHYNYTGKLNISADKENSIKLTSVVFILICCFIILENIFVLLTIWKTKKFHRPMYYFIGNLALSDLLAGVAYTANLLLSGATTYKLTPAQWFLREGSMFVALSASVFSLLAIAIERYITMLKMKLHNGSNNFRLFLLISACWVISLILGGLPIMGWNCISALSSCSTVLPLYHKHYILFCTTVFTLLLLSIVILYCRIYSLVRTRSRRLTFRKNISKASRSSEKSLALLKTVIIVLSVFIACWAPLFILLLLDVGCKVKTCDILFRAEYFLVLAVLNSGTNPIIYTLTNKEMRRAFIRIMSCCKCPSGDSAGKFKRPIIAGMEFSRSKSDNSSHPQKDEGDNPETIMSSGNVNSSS
Target sequence in this assay (P32121 whole entry partner, looked up, the tested form may be a part): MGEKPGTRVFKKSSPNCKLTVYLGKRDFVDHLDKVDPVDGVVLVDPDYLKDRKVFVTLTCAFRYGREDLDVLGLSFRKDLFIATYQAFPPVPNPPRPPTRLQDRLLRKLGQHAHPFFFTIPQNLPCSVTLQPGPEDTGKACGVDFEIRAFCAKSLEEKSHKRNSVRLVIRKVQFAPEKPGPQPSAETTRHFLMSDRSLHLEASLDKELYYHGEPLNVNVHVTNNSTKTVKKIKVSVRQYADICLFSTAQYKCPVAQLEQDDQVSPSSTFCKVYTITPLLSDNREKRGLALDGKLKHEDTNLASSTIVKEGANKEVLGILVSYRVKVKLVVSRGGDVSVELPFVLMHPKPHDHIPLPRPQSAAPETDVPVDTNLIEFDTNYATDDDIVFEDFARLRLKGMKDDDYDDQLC

[2] = target: T1, human sphingosine-1-phosphate receptor 1 (S1P1); assay: Inhibition of cAMP production (HTRF cAMP HiRange), S1P1 CHO-K1 cells; type: cell-based; conditions: for Emax: CHO-K1, efficacy (SPAN) normalized to fingolimod, read-out: hS1P1 cAMP SPAN; for hS1P1 cAMP pEC50 / EC50: inhibition of cAMP production, S1P1 CHO-K1 cells; for EC50: read-out: hS1P1 cAMP pEC50 (converted)
Summary of the method: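 CHO-K1 cells stably co-expressing human S1P1 (C-terminal Prolink tag) and EA-β-arrestin2 were grown in AssayComplete Media 6 at 37° C. and 5% CO2, plated, and incubated overnight. Agonist-driven inhibition of intracellular cAMP was read by TR-FRET with the HTRF cAMP HiRange kit on a PheraStar reader. Potency is pEC50, and efficacy (SPAN) is normalized to fingolimod.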
Target sequence in this assay (P21453 whole entry, looked up, the tested form may be a part): as the sequence (P21453 whole entry, looked up, the tested form may be a part) above

Row | Structure (SMILES) | Emax [1] [%] | hS1P1 B-arrestin2 pEC50 [1] | Emax [2] [%] | hS1P1 cAMP pEC50 [2] | EC50 [1] [µM] | EC50 [2] [µM]
1 | COc1ccccc1-c1nnc(-c2ccc3c(c2)oc(=O)n3C)o1 [Compound 350, 6-[5-(2-methoxyphenyl)-1,3,4-oxadiazol-2-yl]-3-methyl-2,3-dihydro-1,3-benzoxazol-2-one] | < 75 | <5 | < 75 | <6.5 | – | –
2 | CC(C)Nc1ccc(-c2nnc(-c3ccc4[nH]ncc4c3)o2)cc1C#N [Compound 351, 5-[5-(1H-indazol-5-yl)-1,3,4-oxadiazol-2-yl]-2-[(propan-2-yl)amino]benzonitrile] | > 75 | >5 | > 75 | >6.5 | – | –
3 | N#Cc1cc(-c2nnc(-c3ccc4[nH]ncc4c3)o2)ccc1NCC1CC1 [Compound 352, 2-[(cyclopropylmethyl)amino]-5-[5-(1H-indazol-5-yl)-1,3,4-oxadiazol-2-yl]benzonitrile] | > 75 | >5 | > 75 | >6.5 | – | –
4 | N#Cc1cc(-c2nnc(-c3ccc4[nH]ncc4c3)o2)ccc1NCCF [Compound 353, 2-[(2-fluoroethyl)amino]-5-[5-(1H-indazol-5-yl)-1,3,4-oxadiazol-2-yl]benzonitrile] | > 75 | >5 | > 75 | >6.5 | – | –
5 | N#Cc1cc(-c2nnc(-c3ccc4[nH]cnc4c3)o2)ccc1NCC1CC1 [Compound 357, 5-[5-(1H-1,3-benzodiazol-5-yl)-1,3,4-oxadiazol-2-yl]-2-[(cyclopropylmethyl)amino]benzonitrile] | > 75 | >5 | > 75 | >6.5 | – | –
6 | Cc1nc(-c2ccccc2)oc1-c1cnc2c(c1)CC(=O)N2 [Compound 360, 5-(4-methyl-2-phenyl-1,3-oxazol-5-yl)-1H,2H,3H-pyrrolo[2,3-b]pyridin-2-one] | – | <5 | – | <6.5 | – | –
7 | Cc1ccccc1-c1noc(-c2ccc3scnc3c2)n1 [Compound 362, 5-[3-(2-methylphenyl)-1,2,4-oxadiazol-5-yl]-1,3-benzothiazole] | – | <5 | – | <6.5 | – | –
8 | Cc1ccccc1-c1noc(-c2ccc3c(c2)CCC(=O)N3)n1 [Compound 365, 6-[3-(2-methylphenyl)-1,2,4-oxadiazol-5-yl]-1,2,3,4-tetrahydroquinolin-2-one] | – | >5 | – | <6.5 | – | –
9 | Cc1ccccc1-c1noc(-c2ccc3c(c2)CCC(=O)N3C)n1 [Compound 367, 1-methyl-6-[3-(2-methylphenyl)-1,2,4-oxadiazol-5-yl]-1,2,3,4-tetrahydroquinolin-2-one] | – | <5 | – | <6.5 | – | –
10 | COc1ccccc1-c1noc(-c2ccc3[nH]cnc3c2)n1 [Compound 369, 5-(1H-benzo[d]imidazol-5-yl)-3-(2-methoxyphenyl)-1,2,4-oxadiazole] | – | <5 | – | <6.5 | – | –
11 | CN1C(=O)Cc2cc(-c3nc(-c4cccnc4)no3)ccc21 [Compound 377, 1-methyl-5-[3-(pyridin-3-yl)-1,2,4-oxadiazol-5-yl]-2,3-dihydro-1H-indol-2-one] | – | <5 | – | <6.5 | – | –
12 | COC(=O)C12C3C4C1C1C2C3C41c1nc(-c2ccc3c(c2)nnn3C(C)C)no1 (stereo not drawn) [Compound 378] | < 75 | – | < 75 | – | > 10 | > 0.316
13 | CC(C)n1nnc2cc(-c3noc(C45C6C7C4C4C5C6C74C(=O)O)n3)ccc21 (stereo not drawn) [Compound 379] | < 75 | – | < 75 | – | > 10 | > 0.316
14 | Cc1ccccc1-c1noc(-c2cnc3c(c2)nnn3C(C)C)n1 [Compound 382, 3-(2-methylphenyl)-5-[3-(propan-2-yl)-3H-[1,2,3]triazolo[4,5-b]pyridin-6-yl]-1,2,4-oxadiazole] | – | >5 | – | >6.5 | – | –
15 | O=C1CCc2cc(-c3nc(-c4cccnc4)no3)ccc2N1 [Compound 386, 6-[3-(pyridin-3-yl)-1,2,4-oxadiazol-5-yl]-1,2,3,4-tetrahydroquinolin-2-one] | – | <5 | – | <6.5 | – | –

Next, values leading:

Row | Emax [1] [%] | hS1P1 B-arrestin2 pEC50 [1] | Emax [2] [%] | hS1P1 cAMP pEC50 [2] | EC50 [1] [µM] | EC50 [2] [µM] | Structure (SMILES)
16 | – | <5 | – | <6.5 | – | – | COc1ccc(-c2nsc(-c3ccc4[nH]ccc4c3)n2)cc1 [Compound 363, 5-[3-(4-methoxyphenyl)-1,2,4-thiadiazol-5-yl]-1H-indole]
17 | – | <5 | – | <6.5 | – | – | COc1cccc(-c2nc(-c3ccc4[nH]ccc4c3)ns2)c1 [Compound 364, 5-[5-(3-methoxyphenyl)-1,2,4-thiadiazol-3-yl]-1H-indole]
18 | – | <5 | – | <6.5 | – | – | COc1cccc(-c2nc(-c3ccc4c(ccn4C(C)C)c3)ns2)c1 [Compound 366, 5-[5-(3-methoxyphenyl)-1,2,4-thiadiazol-3-yl]-1-(propan-2-yl)-1H-indole]
19 | – | <5 | – | <6.5 | – | – | COc1ccccc1-c1noc(-c2ccc3[nH]ccc3c2)n1 [Compound 368, 5-(1H-indol-5-yl)-3-(2-methoxyphenyl)-1,2,4-oxadiazole]
20 | – | >5 | – | >6.5 | – | – | COc1ccccc1-c1noc(-c2ccc3c(cnn3C(C)C)c2)n1 [Compound 370, 5-(1-isopropyl-1H-indazol-5-yl)-3-(2-methoxyphenyl)-1,2,4-oxadiazole]
21 | – | <5 | – | <6.5 | – | – | COc1ccccc1-c1noc(-c2ccc3[nH]ncc3c2)n1 [Compound 371, 5-(1H-indazol-5-yl)-3-(2-methoxyphenyl)-1,2,4-oxadiazole]
22 | – | >5 | – | >6.5 | – | – | COc1ccccc1-c1noc(-c2ccc3c(ccn3C(C)C)c2)n1 [Compound 372, 5-(1-isopropyl-1H-indol-5-yl)-3-(2-methoxyphenyl)-1,2,4-oxadiazole]
23 | – | <5 | – | <6.5 | – | – | COc1ccccc1-c1noc(-c2ccc3c(c2)ncn3C(C)C)n1 [Compound 373, 5-(1-isopropyl-1H-benzo[d]imidazol-5-yl)-3-(2-methoxyphenyl)-1,2,4-oxadiazole]
24 | – | <5 | – | <6.5 | – | – | CC(C)n1ccc2cc(-c3nc(-c4ccccc4F)ns3)ccc21 [Compound 374, 5-[3-(2-fluorophenyl)-1,2,4-thiadiazol-5-yl]-1-(propan-2-yl)-1H-indole]
25 | – | >5 | – | >6.5 | – | – | COc1ccccc1-c1nc(-c2ccc3c(ccn3C(C)C)c2)ns1 [Compound 375, 5-[5-(2-methoxyphenyl)-1,2,4-thiadiazol-3-yl]-1-(propan-2-yl)-1H-indole]
26 | – | <5 | – | <6.5 | – | – | CC(C)n1ccc2cc(-c3nsc(-c4ccccc4F)n3)ccc21 [Compound 380, 5-[5-(2-fluorophenyl)-1,2,4-thiadiazol-3-yl]-1-(propan-2-yl)-1H-indole]
27 | – | >5 | – | <6.5 | – | – | Cc1ccccc1-c1nsc(-c2ccc3c(ccn3C(C)C)c2)n1 [Compound 381, 5-[3-(2-methylphenyl)-1,2,4-thiadiazol-5-yl]-1-(propan-2-yl)-1H-indole]
28 | – | >5 | – | >6.5 | – | – | COc1ccccc1-c1noc(-c2cnc3c(c2)nnn3C(C)C)n1 [Compound 383, 3-(2-methoxyphenyl)-5-[3-(propan-2-yl)-3H-[1,2,3]triazolo[4,5-b]pyridin-6-yl]-1,2,4-oxadiazole]
29 | > 75 | <5 | < 75 | <6.5 | – | – | COc1cccc(-c2coc(-c3ccc4c(c3)nnn4C(C)C)n2)c1 [Compound 385, 5-[4-(3-methoxyphenyl)-1,3-oxazol-2-yl]-1-(propan-2-yl)-1H-1,2,3-benzotriazole]
30 | – | >5 | – | <6.5 | – | – | CC(C)n1ccc2cc(-c3noc(-c4ccccc4F)n3)ccc21 [Compound 387, 5-(2-fluorophenyl)-3-(1-isopropyl-1H-indol-5-yl)-1,2,4-oxadiazole]
31 | – | >5 | – | >6.5 | – | – | CC(C)n1ccc2cc(-c3noc(-c4ccccc4Br)n3)ccc21 [Compound 388, 5-(2-bromophenyl)-3-(1-isopropyl-1H-indol-5-yl)-1,2,4-oxadiazole]
32 | – | >5 | – | >6.5 | – | – | Cc1ccccc1-c1nc(-c2ccc3c(ccn3C(C)C)c2)no1 [Compound 389, 3-(1-isopropyl-1H-indol-5-yl)-5-(o-tolyl)-1,2,4-oxadiazole]
33 | – | >5 | – | >6.5 | – | – | CC(C)n1ccc2cc(-c3noc(-c4ccccc4C(F)(F)F)n3)ccc21 [Compound 390, 3-(1-isopropyl-1H-indol-5-yl)-5-(2-(trifluoromethyl)phenyl)-1,2,4-oxadiazole]
34 | – | <5 | – | <6.5 | – | – | COc1cccc(-c2nc(-c3ccc4c(ccn4C(C)C)c3)no2)c1 [Compound 392, 3-(1-isopropyl-1H-indol-5-yl)-5-(3-methoxyphenyl)-1,2,4-oxadiazole]
